Here are results for three molecules from patent US8104331B2, “Method and device to extract components contained in a fluid” (Noab Biodiscoveries Inc., priority 2006, dated 2012).

Data set [1] can be described thus: In vivo SPME sampling of whole blood for pharmacokinetics after i.v. bolus diazepam. The conditions noted are these: rat; for AUMC0-inf / AUMC0-tlast: metabolite, SPME (blood, equilibrium calibration), i.v. bolus 0.5 mg/kg diazepam, noncompartmental; for AUMC: SPME/blood, 2-compartment analysis. As for the experimental part: (§1) Animal Experiments: Male Sprague-Dawley rats (Charles River Labs, St. Constant, PQ) with an average weight of 300 g are acclimatized to their new environment for a minimum of 5 days prior to surgery. […] The catheters are plugged with removable metal plugs at the free end and then exteriorized by threading them under the skin and through a small incision at the nape of the neck. Animals are allowed to recover overnight prior to dosing. […] In vivo mouse experiments are conducted with conscious male Swiss Webster mice implanted with a carotid artery catheter. All procedures followed have been reviewed by the NoAb BioDiscoveries Inc. animal care committee and were performed in accordance with the principles of the Canadian Council on Animal Care (CCAC).
A device to extract components is attached to the carotid artery catheter prior to dosing each rat or mouse. To insert the probes, the tip of the SPME probe needle is used to pierce the septum of the device. The length of the fiber or wire of the probe is chosen so that the coated wire is completely exposed to the blood flow when the plunger is fully depressed. Before use, the SPME probe is sterilized in an autoclave at 121° C. and 15 psi for about 30 minutes. For validation purposes, blood draws are taken from the same interface after each sampling with SPME. All the probes are for single use.
(§2) For each time point (5, 15, 30, 45, 60, 75, 120, 180, 240 and 360 min), the probes are in place for about two (2) minutes before the stated analysis time and blood draws are performed immediately after removing the probes. After the two (2) minute extraction time, the probes are removed, rinsed with water, and stored at −20° C. until the next day, when analysis is performed. […] For SPME calibration, rat whole blood is spiked with appropriate amounts of benzodiazepines and incubated with 10% CO2 atmosphere. The analytical range is 3-750 ng/mL.
(§3) Areas under the plasma concentration versus time curves (AUCs) represent the areas under the curve from the time of dosing and extrapolated to infinity. […] The total body clearance (CL) is estimated as: Dose/AUC. Mean residence times (MRT) are calculated as: AUMC/AUC, where AUMC denotes the area under the first moment curve. The steady-state volume of distribution (Vss) is calculated as: CL*MRT.
(§4) AUCs are calculated by the linear/log-linear trapezoidal rule. AUCs represent the areas under the curve from the time of dosing: (1) to the time (tlast) of the last measurable concentration, Clast (AUC0-tlast) and, (2) extrapolated to infinity (AUC0-inf). AUC0-inf is estimated by the addition of AUC0-tlast and Clast/k, where k (or λz) represents the terminal elimination rate constant. K is estimated by weighted (1/Y^2) regression analysis of at least 4 time points from the terminal (log-linear) portion of the concentration versus time curve.
In vivo experiments are conducted with conscious male Sprague-Dawley rats implanted with jugular vein and carotid artery catheters. The catheters are plugged and exteriorized at the nape of the neck. Prior to dosing, the opening of the device is connected to the carotid artery catheter. The channel of the device is either connected to the jugular vein catheter or is connected to a syringe pump. Connecting the device to the jugular vein catheter allowed for automatic return of the arterial blood, using the pumping action of the heart of the animal. Connecting the device to a syringe allows for precise control of the blood flow rate through the device. The device and the associated tubing are kept warm at 38° C.
At each sampling time point, a sterile SPME device is placed through the septum into the interface so that only the coated portion of the fiber is exposed to the flowing blood. Blood flow through the device is either allowed to run freely via recirculation to the jugular vein or is induced by the push/pull action of a syringe attached to the channel.

Data set [2] is described as follows: Conventional plasma sampling and analysis for pharmacokinetics after i.v. bolus diazepam. Particulars: rat; for AUMC0-inf / AUMC0-tlast: metabolite, i.v. bolus 0.5 mg/kg diazepam, noncompartmental; for AUMC: 2-compartment analysis. How it is done:
as §1, §2
Conventional Plasma Sampling and Analysis: In addition to SPME sampling, 0.2 mL of blood is withdrawn from the interface at each time point. Plasma is isolated by centrifugation at 2500 rpm for 10 minutes and frozen at −20° C. in 2 mL cryovials (Wheaton Science Products, Millville, N.J.) until analysis. For analysis, 0.05 mL of plasma is mixed with 0.25 mL acetonitrile containing 25 ng/mL lorazepam as internal standard in conical centrifuge vials. After vortex mixing (2400 rpm, 5 minutes) and centrifugation (14000 rpm, 7 minutes), 0.2 mL of the supernatant is transferred to a 96-well plate and evaporated to dryness under flowing nitrogen. The residue is dissolved in 0.1 mL acetonitrile/water (75:25) on a shaking bed (150 rpm). Twenty μL is injected for analysis using the same chromatographic conditions as for the analysis of SPME probes. The linear range is 0.1-1000 ng/mL.
as §3, §4
For validation of the in vivo sampling method taught by the applicant's teachings, blood is sampled after each probe extraction, and plasma is isolated by centrifugation.

Turning to `O=C1CN=C(c2ccccc2)c2cc(Cl)ccc2N1` [Nordiazepam, nordiazepam], in data set [1], the AUMC0-inf is 50.0 h^2*ng/mL and the AUMC0-tlast stood at 7.86 h^2*ng/mL. Further, in data set [2], the AUMC0-inf worked out at 16.5 h^2*ng/mL and the AUMC0-tlast was 6.38 h^2*ng/mL.

In the case of `O=C1Nc2ccc(Cl)cc2C(c2ccccc2)=NC1O` (stereo not drawn) [Oxazepam, oxazepam], in data set [1], the AUMC0-inf stood at 834 h^2*ng/mL and the AUMC0-tlast came out at 278 h^2*ng/mL. Moreover, in data set [2], the AUMC0-inf amounted to 293 h^2*ng/mL and the AUMC0-tlast was 176 h^2*ng/mL.

Consider `CN1C(=O)CN=C(c2ccccc2)c2cc(Cl)ccc21` [diazepam], for which the AUMC in data set [1] (equilibrium calibration, diazepam 0.5 mg/kg i.v. bolus) was 527 h^2*ng/mL; in data set [1] (kinetic calibration, diazepam 1 mg/kg i.v. bolus), 741 h^2*ng/mL; in data set [2] (equilibrium calibration study, diazepam 0.5 mg/kg i.v. bolus) it was 319 h^2*ng/mL; in data set [2] (kinetic calibration study, diazepam 1 mg/kg i.v. bolus), 1000 h^2*ng/mL.
